Test results published in ChEMBL document CHEMBL4507257, “Data for DCP probe ABT-100” (2021).

Experiments:
[1] = biological target: Cyclin-dependent kinase 13 (Homo sapiens) (UniProt Q14004); conditions: Compound concentration 1000.0 nM
[2] = biological target: T1, 5-hydroxytryptamine receptor 2C (Homo sapiens) (UniProt P28335); conditions: Compound concentration 10.0 uM
T1 sequence (whole entry): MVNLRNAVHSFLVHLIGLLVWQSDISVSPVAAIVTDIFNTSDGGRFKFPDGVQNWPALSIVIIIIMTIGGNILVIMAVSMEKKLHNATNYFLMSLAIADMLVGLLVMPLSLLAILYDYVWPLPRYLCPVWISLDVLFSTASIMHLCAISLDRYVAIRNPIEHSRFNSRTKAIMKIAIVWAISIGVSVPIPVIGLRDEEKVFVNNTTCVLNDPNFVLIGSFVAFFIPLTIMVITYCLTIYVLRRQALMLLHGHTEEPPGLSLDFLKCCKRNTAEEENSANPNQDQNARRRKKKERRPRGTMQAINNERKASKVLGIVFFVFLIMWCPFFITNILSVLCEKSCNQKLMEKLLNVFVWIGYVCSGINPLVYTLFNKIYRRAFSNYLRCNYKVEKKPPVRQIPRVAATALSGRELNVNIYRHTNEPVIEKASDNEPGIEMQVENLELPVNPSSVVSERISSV

[3] = biological target: 3-phosphoinositide-dependent protein kinase 1 (Homo sapiens) (UniProt O15530); conditions: Compound concentration 1000.0 nM
[4] = biological target: Atypical kinase COQ8B, mitochondrial (Homo sapiens) (UniProt Q96D53); conditions: Compound concentration 1000.0 nM
[5] = biological target: Phosphatidylinositol 4-kinase beta (Homo sapiens) (UniProt Q9UBF8); conditions: Compound concentration 1000.0 nM
[6] = biological target: Calcium/calmodulin-dependent protein kinase type II subunit delta (Homo sapiens) (UniProt Q13557); conditions: Compound concentration 1000.0 nM
[7] = biological target: 1-phosphatidylinositol 3-phosphate 5-kinase (Homo sapiens) (UniProt Q9Y2I7); conditions: Compound concentration 1000.0 nM
[8] = biological target: Myosin light chain kinase 2, skeletal/cardiac muscle (Homo sapiens) (UniProt Q9H1R3); conditions: Compound concentration 1000.0 nM
[9] = system: ALK tyrosine kinase receptor (Homo sapiens), Q9UM73 [C1156Y]; conditions: Compound concentration 1000.0 nM
[10] = system: Tyrosine-protein kinase ABL1 (Homo sapiens), P00519 [Q252H]; conditions: Compound concentration 1000.0 nM
[11] = biological target: Ephrin type-A receptor 5 (Homo sapiens) (UniProt P54756); conditions: Compound concentration 1000.0 nM
[12] = biological target: Uncharacterized serine/threonine-protein kinase SBK3 (Homo sapiens) (UniProt P0C264); conditions: Compound concentration 1000.0 nM
[13] = biological target: Mitogen-activated protein kinase 9 (Homo sapiens) (UniProt P45984); conditions: Compound concentration 1000.0 nM
[14] = system: Mast/stem cell growth factor receptor Kit (Homo sapiens), P10721 [D816V]; conditions: Compound concentration 1000.0 nM
[15] = biological target: Death-associated protein kinase 2 (Homo sapiens) (UniProt Q9UIK4); conditions: Compound concentration 1000.0 nM
[16] = biological target: Interleukin-1 receptor-associated kinase 1 (Homo sapiens) (UniProt P51617); conditions: Compound concentration 1000.0 nM
[17] = biological target: Cyclin-dependent kinase 17 (Homo sapiens) (UniProt Q00537); conditions: Compound concentration 1000.0 nM
[18] = biological target: Ribosomal protein S6 kinase alpha-3 (Homo sapiens) (UniProt P51812); conditions: Compound concentration 1000.0 nM
[19] = biological target: Serine/threonine-protein kinase D1 (Homo sapiens) (UniProt Q15139); conditions: Compound concentration 1000.0 nM
Serine/threonine-protein kinase D1 (Homo sapiens), sequence (Q15139 whole entry): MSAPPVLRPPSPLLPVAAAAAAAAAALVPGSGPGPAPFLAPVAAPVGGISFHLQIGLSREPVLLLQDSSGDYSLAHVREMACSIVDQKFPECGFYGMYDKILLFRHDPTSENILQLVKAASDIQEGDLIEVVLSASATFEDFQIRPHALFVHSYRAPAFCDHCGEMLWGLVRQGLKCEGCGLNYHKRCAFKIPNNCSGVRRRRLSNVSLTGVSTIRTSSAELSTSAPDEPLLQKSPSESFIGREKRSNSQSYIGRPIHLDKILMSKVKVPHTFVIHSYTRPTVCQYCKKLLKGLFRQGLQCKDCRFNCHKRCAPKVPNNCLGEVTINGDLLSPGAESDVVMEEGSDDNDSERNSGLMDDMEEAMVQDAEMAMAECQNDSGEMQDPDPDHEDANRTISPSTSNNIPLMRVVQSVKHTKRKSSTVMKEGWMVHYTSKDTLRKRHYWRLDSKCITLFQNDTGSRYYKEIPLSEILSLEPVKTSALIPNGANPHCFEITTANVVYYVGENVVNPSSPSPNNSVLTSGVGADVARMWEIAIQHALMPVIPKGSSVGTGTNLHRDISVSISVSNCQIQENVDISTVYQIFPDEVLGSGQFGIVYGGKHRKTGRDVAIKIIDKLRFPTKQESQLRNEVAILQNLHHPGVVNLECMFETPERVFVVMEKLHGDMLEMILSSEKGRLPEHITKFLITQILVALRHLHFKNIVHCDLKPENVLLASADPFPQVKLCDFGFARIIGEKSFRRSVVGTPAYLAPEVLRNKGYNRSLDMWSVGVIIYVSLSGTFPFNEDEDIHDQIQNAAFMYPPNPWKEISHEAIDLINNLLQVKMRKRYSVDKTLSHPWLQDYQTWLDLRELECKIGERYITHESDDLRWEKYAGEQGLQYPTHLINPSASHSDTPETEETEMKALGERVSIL

[20] = biological target: T2, Muscarinic acetylcholine receptor M4 (Homo sapiens) (UniProt P08173); conditions: Compound concentration 10.0 uM
T2 sequence (whole entry): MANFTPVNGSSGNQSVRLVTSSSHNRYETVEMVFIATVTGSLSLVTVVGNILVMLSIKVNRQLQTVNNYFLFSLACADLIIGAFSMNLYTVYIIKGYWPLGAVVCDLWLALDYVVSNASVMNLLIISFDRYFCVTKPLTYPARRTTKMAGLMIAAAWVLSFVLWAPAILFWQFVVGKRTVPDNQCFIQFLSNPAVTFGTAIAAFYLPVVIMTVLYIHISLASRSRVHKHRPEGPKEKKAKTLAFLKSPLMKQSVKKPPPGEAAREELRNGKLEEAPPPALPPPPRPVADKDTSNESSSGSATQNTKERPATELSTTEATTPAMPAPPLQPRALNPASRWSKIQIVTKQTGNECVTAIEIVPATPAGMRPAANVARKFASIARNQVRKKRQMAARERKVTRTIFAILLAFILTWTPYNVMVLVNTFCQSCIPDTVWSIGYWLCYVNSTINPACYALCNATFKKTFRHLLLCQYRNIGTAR

[21] = biological target: Serine/threonine-protein kinase WNK3 (Homo sapiens) (UniProt Q9BYP7); conditions: Compound concentration 1000.0 nM
Serine/threonine-protein kinase WNK3 (Homo sapiens), sequence (Q9BYP7 whole entry): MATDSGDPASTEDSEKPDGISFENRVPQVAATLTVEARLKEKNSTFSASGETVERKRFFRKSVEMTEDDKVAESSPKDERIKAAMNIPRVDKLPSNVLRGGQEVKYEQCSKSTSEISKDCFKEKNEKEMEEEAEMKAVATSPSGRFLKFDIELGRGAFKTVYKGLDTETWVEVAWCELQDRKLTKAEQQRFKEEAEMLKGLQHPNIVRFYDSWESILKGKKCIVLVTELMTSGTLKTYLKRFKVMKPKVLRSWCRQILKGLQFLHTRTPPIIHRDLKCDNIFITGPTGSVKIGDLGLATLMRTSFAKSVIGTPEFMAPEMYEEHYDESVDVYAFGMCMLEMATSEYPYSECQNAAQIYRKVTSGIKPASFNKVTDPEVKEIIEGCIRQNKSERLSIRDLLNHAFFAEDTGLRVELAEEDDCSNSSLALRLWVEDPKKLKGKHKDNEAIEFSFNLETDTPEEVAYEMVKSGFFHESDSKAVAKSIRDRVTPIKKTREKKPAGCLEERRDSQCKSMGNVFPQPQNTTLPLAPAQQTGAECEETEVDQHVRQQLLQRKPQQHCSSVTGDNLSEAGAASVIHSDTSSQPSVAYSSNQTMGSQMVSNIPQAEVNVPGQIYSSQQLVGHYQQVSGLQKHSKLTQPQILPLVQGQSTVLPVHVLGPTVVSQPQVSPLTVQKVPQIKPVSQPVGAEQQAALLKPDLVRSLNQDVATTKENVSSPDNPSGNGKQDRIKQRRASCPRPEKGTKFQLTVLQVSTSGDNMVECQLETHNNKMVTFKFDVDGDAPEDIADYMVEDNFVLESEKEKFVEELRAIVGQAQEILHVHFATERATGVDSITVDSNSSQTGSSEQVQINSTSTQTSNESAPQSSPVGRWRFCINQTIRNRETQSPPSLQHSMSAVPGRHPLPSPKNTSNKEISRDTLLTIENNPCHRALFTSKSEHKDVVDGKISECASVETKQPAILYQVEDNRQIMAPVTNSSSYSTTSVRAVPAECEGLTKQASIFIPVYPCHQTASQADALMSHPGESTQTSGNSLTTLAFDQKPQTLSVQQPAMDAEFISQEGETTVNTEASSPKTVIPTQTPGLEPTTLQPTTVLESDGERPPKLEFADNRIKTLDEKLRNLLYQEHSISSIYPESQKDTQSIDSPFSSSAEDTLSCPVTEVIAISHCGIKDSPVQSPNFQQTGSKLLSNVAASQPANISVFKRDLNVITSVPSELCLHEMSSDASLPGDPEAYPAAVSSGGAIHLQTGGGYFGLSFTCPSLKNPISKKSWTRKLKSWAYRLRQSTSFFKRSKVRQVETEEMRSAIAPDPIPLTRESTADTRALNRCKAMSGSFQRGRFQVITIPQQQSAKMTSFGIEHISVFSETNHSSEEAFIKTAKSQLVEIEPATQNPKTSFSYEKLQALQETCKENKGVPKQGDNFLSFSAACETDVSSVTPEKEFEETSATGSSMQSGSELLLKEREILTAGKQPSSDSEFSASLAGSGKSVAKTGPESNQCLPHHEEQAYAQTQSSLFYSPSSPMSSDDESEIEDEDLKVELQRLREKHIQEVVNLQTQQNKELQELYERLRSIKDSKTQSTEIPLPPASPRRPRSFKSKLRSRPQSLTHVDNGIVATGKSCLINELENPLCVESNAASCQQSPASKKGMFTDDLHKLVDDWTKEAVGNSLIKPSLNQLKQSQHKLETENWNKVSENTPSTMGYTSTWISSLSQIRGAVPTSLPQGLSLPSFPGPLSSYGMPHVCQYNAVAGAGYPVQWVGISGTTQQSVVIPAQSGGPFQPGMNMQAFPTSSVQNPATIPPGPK

[22] = biological target: Serine/threonine-protein kinase Nek6 (Homo sapiens) (UniProt Q9HC98); conditions: Compound concentration 1000.0 nM
Serine/threonine-protein kinase Nek6 (Homo sapiens), sequence (Q9HC98 whole entry): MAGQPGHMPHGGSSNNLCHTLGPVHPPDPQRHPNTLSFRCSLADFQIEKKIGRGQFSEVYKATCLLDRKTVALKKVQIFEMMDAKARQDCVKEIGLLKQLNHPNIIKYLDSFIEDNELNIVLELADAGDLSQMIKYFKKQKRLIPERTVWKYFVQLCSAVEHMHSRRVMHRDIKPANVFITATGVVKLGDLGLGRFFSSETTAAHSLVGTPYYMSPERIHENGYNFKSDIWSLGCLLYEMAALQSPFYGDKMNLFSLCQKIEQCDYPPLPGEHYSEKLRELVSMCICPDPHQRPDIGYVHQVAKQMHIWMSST

[23] = system: Epidermal growth factor receptor (Homo sapiens), P00533 [L858R,T790M]; conditions: Compound concentration 1000.0 nM
[24] = biological target: Focal adhesion kinase 1 (Homo sapiens) (UniProt Q05397); conditions: Compound concentration 1000.0 nM
[25] = biological target: Serine/threonine-protein kinase RIO2 (Homo sapiens) (UniProt Q9BVS4); conditions: Compound concentration 1000.0 nM
[26] = biological target: Serine/threonine-protein kinase Nek10 (Homo sapiens) (UniProt Q6ZWH5); conditions: Compound concentration 1000.0 nM
[27] = system: Proto-oncogene tyrosine-protein kinase receptor Ret (Homo sapiens), P07949 [V804M]; conditions: Compound concentration 1000.0 nM
[28] = biological target: Macrophage-stimulating protein receptor (Homo sapiens) (UniProt Q04912); conditions: Compound concentration 1000.0 nM
Macrophage-stimulating protein receptor (Homo sapiens), sequence (Q04912 25-304 limits assumed): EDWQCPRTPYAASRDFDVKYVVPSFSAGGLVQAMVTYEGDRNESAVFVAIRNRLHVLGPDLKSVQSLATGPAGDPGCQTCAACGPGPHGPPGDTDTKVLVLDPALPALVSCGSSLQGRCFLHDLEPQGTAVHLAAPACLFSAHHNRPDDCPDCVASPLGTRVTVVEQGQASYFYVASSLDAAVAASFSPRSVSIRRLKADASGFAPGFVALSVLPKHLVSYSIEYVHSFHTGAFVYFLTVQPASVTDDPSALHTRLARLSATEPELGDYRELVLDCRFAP
Macrophage-stimulating protein receptor (Homo sapiens), sequence (Q04912 310-1400 limits assumed): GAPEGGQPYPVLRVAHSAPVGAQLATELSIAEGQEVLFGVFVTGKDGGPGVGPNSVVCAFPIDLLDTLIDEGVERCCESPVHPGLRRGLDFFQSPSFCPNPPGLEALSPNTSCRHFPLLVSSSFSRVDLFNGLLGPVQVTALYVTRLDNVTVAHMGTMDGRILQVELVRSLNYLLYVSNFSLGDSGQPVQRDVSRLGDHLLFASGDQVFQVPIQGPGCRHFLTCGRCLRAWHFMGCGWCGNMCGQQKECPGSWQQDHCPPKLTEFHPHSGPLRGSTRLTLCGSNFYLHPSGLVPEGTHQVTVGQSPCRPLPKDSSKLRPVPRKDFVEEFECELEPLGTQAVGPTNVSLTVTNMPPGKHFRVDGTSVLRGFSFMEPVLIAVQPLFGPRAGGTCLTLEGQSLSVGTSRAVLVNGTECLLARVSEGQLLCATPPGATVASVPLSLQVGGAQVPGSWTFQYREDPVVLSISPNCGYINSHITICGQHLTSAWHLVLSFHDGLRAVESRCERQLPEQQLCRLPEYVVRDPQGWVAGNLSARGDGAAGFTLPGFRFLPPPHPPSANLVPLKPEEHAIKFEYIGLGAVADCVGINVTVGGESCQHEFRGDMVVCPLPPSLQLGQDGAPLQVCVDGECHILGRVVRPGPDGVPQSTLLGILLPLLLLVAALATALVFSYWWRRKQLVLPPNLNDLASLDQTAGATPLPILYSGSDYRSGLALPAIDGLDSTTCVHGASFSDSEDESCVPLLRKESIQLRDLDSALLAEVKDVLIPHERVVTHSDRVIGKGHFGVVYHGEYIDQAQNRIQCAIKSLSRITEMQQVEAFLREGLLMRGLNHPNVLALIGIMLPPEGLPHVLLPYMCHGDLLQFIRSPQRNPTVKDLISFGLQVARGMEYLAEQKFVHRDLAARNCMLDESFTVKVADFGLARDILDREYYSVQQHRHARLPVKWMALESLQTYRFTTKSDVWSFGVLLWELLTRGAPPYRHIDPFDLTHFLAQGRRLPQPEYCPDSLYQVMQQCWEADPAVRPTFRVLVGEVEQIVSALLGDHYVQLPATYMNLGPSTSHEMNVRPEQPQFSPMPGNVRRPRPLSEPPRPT

[29] = biological target: Aurora kinase C (Homo sapiens) (UniProt Q9UQB9); conditions: Compound concentration 1000.0 nM
[30] = biological target: Beta-3 adrenergic receptor (Homo sapiens) (UniProt P13945); conditions: Compound concentration 10.0 uM
Beta-3 adrenergic receptor (Homo sapiens), sequence (P13945 whole entry, looked up): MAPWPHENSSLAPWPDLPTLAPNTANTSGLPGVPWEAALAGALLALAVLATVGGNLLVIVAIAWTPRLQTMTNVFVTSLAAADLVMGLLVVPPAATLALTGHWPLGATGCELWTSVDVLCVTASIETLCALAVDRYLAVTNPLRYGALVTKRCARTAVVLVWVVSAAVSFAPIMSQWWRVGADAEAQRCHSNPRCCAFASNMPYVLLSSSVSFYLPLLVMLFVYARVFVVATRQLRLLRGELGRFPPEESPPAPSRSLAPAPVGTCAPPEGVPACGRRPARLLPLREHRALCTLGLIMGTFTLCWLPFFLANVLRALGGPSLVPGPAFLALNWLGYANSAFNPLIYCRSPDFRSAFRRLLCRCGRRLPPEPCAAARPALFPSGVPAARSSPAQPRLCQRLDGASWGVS

[31] = system: Epidermal growth factor receptor (Homo sapiens), P00533 [T790M]; conditions: Compound concentration 1000.0 nM
[32] = system: Mast/stem cell growth factor receptor Kit (Homo sapiens), P10721 [V559D,T670I]; conditions: Compound concentration 1000.0 nM
[33] = biological target: Serine/threonine-protein kinase BRSK2 (Homo sapiens) (UniProt Q8IWQ3); conditions: Compound concentration 1000.0 nM

Structure (SMILES) | residual activity [1] [%] | inhibition [2] [%] | residual activity [3] [%] | residual activity [4] [%] | residual activity [5] [%] | residual activity [6] [%] | residual activity [7] [%] | residual activity [8] [%] | residual activity [9] [%] | residual activity [10] [%] | residual activity [11] [%] | residual activity [12] [%] | residual activity [13] [%] | residual activity [14] [%] | residual activity [15] [%] | residual activity [16] [%] | residual activity [17] [%] | residual activity [18] [%] | residual activity [19] [%] | inhibition [20] [%] | further results
Cn1cncc1[C@@](O)(COc1ccc(C#N)cc1-c1ccc(OC(F)(F)F)cc1)c1ccc(C#N)cc1 [A-108] | 87 | 17.1 | 96 | 100 | 80 | 95 | 100 | 100 | 98 | 76 | 67 | 92 | 92 | 100 | 97 | 73 | 95 | 98 | 98 | -9.7 | residual activity [21]: 100%; residual activity [22]: 95%; residual activity [23]: 96%; residual activity [24]: 97%; residual activity [25]: 100%; residual activity [26]: 84%; residual activity [27]: 98%; residual activity [28]: 100%; residual activity [29]: 90%; inhibition [30]: -5.85%; residual activity [31]: 68%; residual activity [32]: 82%; residual activity [33]: 100%
Cn1cncc1[C@](O)(COc1ccc(C#N)cc1-c1ccc(OC(F)(F)F)cc1)c1ccc(C#N)cc1 [ABT-100] | 67 | 0.26 | 87 | 72 | 94 | 100 | 100 | 78 | 92 | 96 | 97 | 100 | 89 | 85 | 82 | 83 | 100 | 100 | 99 | 6.8 | residual activity [21]: 100%; residual activity [22]: 95%; residual activity [23]: 100%; residual activity [24]: 77%; residual activity [25]: 83%; residual activity [26]: 83%; residual activity [27]: 99%; residual activity [28]: 100%; residual activity [29]: 100%; inhibition [30]: 32.9%; residual activity [31]: 100%; residual activity [32]: 84%; residual activity [33]: 48%
